According to patent publication EP4781986A1, “PHARMACEUTICAL COMPOSITION HAVING IMPROVED PHARMACOKINETIC PROPERTIES” (Sichuan Purity Pharmaceutical Co., Ltd., priority 2023, dated 2025):
Like-named read-outs stand apart in the source and are kept apart here.

What was measured:
CGRP receptor complex = target: T1, CGRP receptor complex (Homo sapiens, UniProt O60894+Q16602); assay: determination of cell functional antagonism - cAMP determination; assay type: cell-based; conditions: inhibition of CGRP-stimulated cAMP formation in SK-N-MC cells
T1 construct: SK-N-MC (neuroepithelioma cells) from National Science and Technology Infrastructure; host or cells: SK-N-MC
Experimental: A CGRP receptor complex was coupled with Gs in G protein, the combination of CGRP and CGRP receptor complex led to Gs activation, and cAMP (3',5'-cyclic adenosine monophosphate) was produced.
The ability of the compound of the present invention to inhibit CGRP-stimulated cAMP formation in SK-N-MC cells was determined.
SK-N-MC (neuroepithelioma cells) from National Science and Technology Infrastructure - Biomedical Materials and Cell Resources.
The SK-N-MC cells were resuscitated and cultured in advance, and a cell confluence degree should be 70%-80% before use.
4.2 A sample dilution, a tested compound and α-CGRP (human) were prepared.
The SK-N-MC cells were digested, centrifuged, then resuspended with the sample dilution, and inoculated into a 384-well plate. Each well was added with the α-CGRP (human) and the tested compound respectively, and blown and mixed evenly. The well plate was adhered with a sealing film, and placed on an enzyme-labeled incubator to incubate at 25°C.
4.4 cAMP determination: carried out according to LANCE Ultra cAMP Kit specification EucAMP tracer and ULight-anti-cAMP working solutions were prepared in the dark, respectively added into the well plate, and blown and mixed evenly. The well plate was adhered with a sealing film, and placed on an enzyme-labeled incubator to incubate at 25°C.
4.5 A luminescence value was read by a chemiluminescent module of an automatic enzyme-labeled instrument.

Plasma of SD rat = assay: plasma protein binding rate test, equilibrium dialysis (rat); assay type: in vitro ADME; conditions: 1 µM, 37°C, 6 hours
Experimental: (§1) Protein binding rates of the compound of the present invention in plasma of rat, monkey and human were determined by an equilibrium dialysis method. Tested compounds of the present invention were the compounds in Examples 6 and 8.
(§2) 3.1 A dry dialysis membrane was rinsed with ultrapure water for 2-3 times, and then soaked in a phosphate buffer for 1 hour for later use. Polytetrafluoroethylene module was soaked in 20% ethanol for 30 minutes, and then surface moisture was dried with dust-free paper for later use. The pretreated dialysis membrane was assembled into a dialysis plate according to the product specification, and one side (receptor compartment) of an osmotic membrane in each dialysis well was added with 100 µL of receptor fluid (100 mM phosphate buffer solution plus 0.002% Tween 80).
(§3) 3.2 The plasma was put into a centrifuge tube, a working solution of a tested substance was added into the plasma, wherein a final concentration was 1 µM, and the mixture was turned upside down and mixed evenly (this step was carried out in ice bath). 20 µL of drug-containing plasma each was taken, and was respectively transferred to a 96-well sample plate according to two parts in parallel, and stored in a refrigerator at -20°C as a T0 sample.
(§4) 3.3 Another 100 µL of the above drug-containing plasma was transferred to the other side (sample compartment) of the membrane in the dialysis device according to two parts in parallel, and incubated under vibration at a constant temperature of 37°C for 6 hours. […]
(§5) A plasma protein binding rate and a recovery rate of the compound in plasma were calculated by the following formulas: dissociation percentage (%) = CB /CA; [formula] plasma protein binding rate (fb%) = 1−dissociation percentage (%); [formula] recovery rate (%) = (CB+CA)/CT0 [formula] wherein CB was a concentration of the compound in the receptor fluid after equilibrium dialysis; CA was a concentration of the compound in the drug-containing plasma after equilibrium dialysis; and CT0 was an initial concentration of the compound in plasma.

[1] = stability test in liver microsomes (rat); assay type: in vitro ADME; conditions: for % remaining (60 min): Rat liver microsomes
Experimental: (§6) The stability of the compound of the present invention in liver microsomes of rat, monkey and human was determined. Tested compounds of the present invention were the compounds in Examples 6 and 8 , and a control drug was Zavegepant.
(§7) 3.2 An appropriate amount of liver microsome solution was transferred into a 1 mL 96-deep-well plate, added with a tested drug liquid (or a probe substrate solution), and pre-incubated in a thermal mixer at 37°C for 5 minutes. Two parts of mixed solutions were taken out from the system and added with 1×PBS to replace NADPH, and the mixed solutions were taken out at 0 and 60 minutes respectively, and added with methanol (containing an internal standard) to terminate the reaction. In the remaining mixed system, each well was added with NADPH to start the reaction. In the tested substance group, mixed solutions were taken out from the system at 0, 5, 15, 30, 45 and 60 minutes, and in the control group, mixed solutions were taken out from the system at 0, 30 and 60 minutes, and the mixed solutions were added methanol (containing an internal standard) to terminate the reaction. All samples of the terminated reaction were mixed evenly and centrifuged in a centrifuge at 3800 rpm for 15 minutes, and the supernatant was taken for LC-MS/MS analysis.
(§8) A peak area was determined by an extracted ion chromatogram. A slope value k was determined by linear regression of a remaining percentage of a parent drug relative to a natural logarithm of an incubation time curve. According to the slope, in-vitro half-life periods (t1/2) were respectively calculated, and in-vitro intrinsic clearance rates (CLint, represented by µL/min/mg protein) were calculated. Calculation formulas were as follows: t1/2 = ln2/k = 0.693/k; and CLint = 0.693/t1/2 /liver microsome protein concentration [formula]

[2] = test system: Plasma of cynomolgus monkey; assay: plasma protein binding rate test, equilibrium dialysis (monkey); assay type: in vitro ADME; conditions: 1 µM, 37°C, 6 hours
Experimental: as §1, §2, §3, §4, §5

[3] = stability test in liver microsomes (monkey); assay type: in vitro ADME
Experimental: as §6, §7, §8

[4] = stability test in liver microsomes (human); assay type: in vitro ADME; conditions: for % remaining (60 min): Human liver microsomes
Experimental: as §6, §7, §8

Plasma of human = assay: plasma protein binding rate test, equilibrium dialysis (human); assay type: in vitro ADME; conditions: 1 µM, 37°C, 6 hours
Experimental: as §1, §2, §3, §4, §5

[5] = PK properties in SD rats with different concentrations of alkyl glycoside (0.05% and 5% DDM); assay type: in vivo; conditions: intranasal, 5% DDM vs without DDM
Text: During preparation of a test sample in the Test Example 7, drug solution groups with 0.05% and 5% dodecyl-β-D-maltosides (DDM) were established and prepared in parallel, so as to compare and observe changes of PK properties in rats administered with the drug solution groups with two different concentrations of dodecyl-β-D-maltosides (DDM).

[6] = PK properties in SD rats with or without 0.2% alkyl glycoside (DDM); assay type: in vivo; conditions: for Tmax: Sprague-Dawley, rat, in vivo, inhaled or intranasal
Text: During preparation of a test sample in the Test Example 5, a drug solution group with 0.2% dodecyl-β-D-maltoside (DDM) was also established and prepared in parallel, so as to compare and observe changes of PK properties in rats administered with the drug solution group with 0.2% dodecyl-β-D-maltoside (DDM) and the drug solution group without dodecyl-β-D-maltoside (DDM).

[7] = oral administration with alkyl glucoside, according to CN202180077330.9; cited from earlier work

T1 sequence (Q16602 23-461): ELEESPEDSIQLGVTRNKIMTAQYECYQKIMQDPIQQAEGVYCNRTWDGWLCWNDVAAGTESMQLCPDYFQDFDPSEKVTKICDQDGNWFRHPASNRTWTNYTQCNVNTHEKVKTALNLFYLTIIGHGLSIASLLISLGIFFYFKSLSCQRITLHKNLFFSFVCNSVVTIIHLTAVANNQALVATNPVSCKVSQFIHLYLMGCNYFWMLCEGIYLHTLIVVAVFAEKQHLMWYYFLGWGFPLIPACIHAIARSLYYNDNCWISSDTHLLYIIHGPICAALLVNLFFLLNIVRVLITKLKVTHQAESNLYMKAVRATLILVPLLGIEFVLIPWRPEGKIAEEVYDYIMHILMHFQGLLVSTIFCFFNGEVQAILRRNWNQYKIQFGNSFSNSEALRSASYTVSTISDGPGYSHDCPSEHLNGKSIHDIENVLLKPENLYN
T1 sequence (O60894 27-148): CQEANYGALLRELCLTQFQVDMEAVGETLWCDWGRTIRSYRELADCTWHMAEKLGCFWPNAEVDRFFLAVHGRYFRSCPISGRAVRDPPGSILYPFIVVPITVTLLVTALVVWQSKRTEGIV

**Q.** With `Cc1cc(C[C@@H](NC(=O)N2CCC(c3cc4c([nH]c3=O)CCCS4)CC2)C(=O)N2CCN(C3CCN(C)CC3)CC2)cc2cn[nH]c12` [Example 12, (R)-N-(3-(7-methyl-1H-indazole-5-yl)-1-(4-(1-methylpiperidine-4-yl)piperazine-1-yl)-1-oxopropan-2-yl)-4-(6-oxo-3,4,5,6-tetrahydro-2H-thiopyrano[3,2-b]pyridine-7-yl)piperidine-1-formamide] as the compound, how does the IC50 (CGRP receptor complex) read?
**A.** Its IC50 is 16.9 nM.

**Q.** For `[2H]C1([2H])SCc2cc(C3CCN(C(=O)N[C@H](Cc4cc(C)c5[nH]ncc5c4)C(=O)N4CCN(C5CCN(C)CC5)CC4)CC3)c(=O)[nH]c21` [Example 14, (R)-N-(3-(7-methyl-1H-indazole-5-yl)-1-(4-(1-methylpiperidine-4-yl)piperazine-1-yl)-1-oxopropan-2-yl)-4-(2-oxo-1,2,5,7-tetrahydrothieno[3,4-b]pyridine-3-yl-7,7-d2)piperidine-1-formamide], which IC50 (CGRP receptor complex) is on record?
**A.** Its IC50 is 6.85 nM.

**Q.** For `Cc1cc(C[C@@H](NC(=O)N2CCC(c3cc4c([nH]c3=O)CCSC4)CC2)C(=O)N2CCN(C3CCN(C)CC3)CC2)cc2cn[nH]c12` [Example 15, (R)-N-(3-(7-methyl-1H-indazole-5-yl)-1-(4-(1-methylpiperidine-4-yl)piperazine-1-yl)-1-oxopropan-2-yl)-4-(2-oxo-1,5,7,8-tetrahydro-2H-thiopyrano[4,3-b]pyridine-3-yl)piperidine-1-formamide], which IC50 (CGRP receptor complex) is on record?
**A.** The IC50 was 10.1 nM.

**Q.** For `Cc1cc(C[C@@H](NC(=O)C2CCN(c3cc4c([nH]c3=O)SCCC4)CC2)C(=O)N2CCN(C3CCN(C)CC3)CC2)cc2cn[nH]c12` [Example 21, (R)-N-(3-(7-methyl-1H-indazole-5-yl)-1-(4-(1-methylpiperidine-4-yl)piperazine-1-yl)-1-oxopropan-2-yl)-1-(7-oxo-3,4,7,8-tetrahydro-2H-thiopyrano[2,3-b]pyridine-6-yl)piperidine-4-formamide], which IC50 (CGRP receptor complex) is on record?
**A.** The IC50 was 590 nM.

**Q.** With `Cc1cc(C[C@@H](NC(=O)N2CCC(c3cc4c([nH]c3=O)SCCC4)CC2)C(=O)N2CCC(N3CCN(C)CC3)CC2)cc2cn[nH]c12` [Example 25, (R)-N-(3-(7-methyl-1H-indazole-5-yl)-1-(4-(4-methylpiperazine-1-yl)piperidine-1-yl)-1-oxopropan-2-yl)-4-(7-oxo-3,4,7,8-tetrahydro-2H-thiopyrano[2,3-b]pyridine-6-yl)piperidine-1-formamide] as the compound, how does the IC50 (CGRP receptor complex) read?
**A.** Its IC50 is 0.79 nM.

**Q.** Which results are given for `[2H]C([2H])([2H])N1CCC(N2CCN(C(=O)[C@@H](Cc3cc(C)c4[nH]ncc4c3)NC(=O)N3CCC(c4cc5c([nH]c4=O)SCC5)CC3)CC2)CC1` [Example 29, (R)-N-(3-(7-methyl-1H-indazole-5-yl)-1-(4-(1-(methyl-d3)piperidine-4-yl)piperazine-1-yl)-1-oxopropan-2-yl)-4-(6-oxo-2,3,6,7-tetrahydrothieno[2,3-b]pyridine-5-yl)piperidine-1-formamide]?
**A.** fb (%) (Plasma of SD rat): 64.3%; half-life at 1 µM ([1]; Rat liver microsomes 0.5 mg/mL, 1.0 µM): > 120 min; % remaining (60 min) [1]: 105%; fb (%) [2]: 56.1%; microsomal CLint at 1 µM ([3]; Monkey liver microsomes): 1.6 µL/min/mg; half-life at 1 µM ([3]; Monkey liver microsomes 0.5 mg/mL, 1.0 µM): > 120 min; % remaining (60 min) ([3]; Monkey liver microsomes): 98.9%; half-life at 1 µM ([4]; Human liver microsomes 0.5 mg/mL, 1.0 µM): > 120 min; % remaining (60 min) [4]: 115%; fb (%) (Plasma of human): 50.2%

**Q.** With `Cc1cc(C[C@@H](NC(=O)N2CCC(c3cc4c([nH]c3=O)SCC4)CC2)C(=O)N2C3CCC2CC(N2CCCCC2)C3)cc2cn[nH]c12` (stereo partly drawn) [Example 34, N-((2R)-3-(7-methyl-1H-indazole-5-yl)-1-oxo-1-(3-(piperidine-1-yl)-8-azabicyclo[3.2.1]octane-8-yl)propan-2-yl)-4-(6-oxo-2,3,6,7-tetrahydrothieno[2,3-b]pyridine-5-yl)piperidine-1-formamide] as the compound, how does the IC50 (CGRP receptor complex) read?
**A.** Its IC50 is 0.2 nM.

**Q.** With `Cc1cc(C[C@@H](NC(=O)N2CCC(c3cc4c([nH]c3=O)C3CCC4C3)CC2)C(=O)N2CCN(C3CCN(C)CC3)CC2)cc2cn[nH]c12` (stereo partly drawn) [Example 45, N-((R)-3-(7-methyl-1H-indazole-5-yl)-1-(4-(1-methylpiperidine-4-yl)piperazine-1-yl)-1-oxopropan-2-yl)-4-(2-oxo-1,2,5,6,7,8-hexahydro-5,8-methanoquinoline-3-yl)piperidine-1-formamide] as the compound, how does the IC50 (CGRP receptor complex) read?
**A.** Its IC50 is 26 nM.

**Q.** For `Cc1cc(C[C@@H](NC(=O)N2CCC(c3cc4c([nH]c3=O)SCC=C4)CC2)C(=O)N2CCN(C3CCN(C)CC3)CC2)cc2cn[nH]c12` [Example 48, (R)-N-(3-(7-methyl-1H-indazole-5-yl)-1-(4-(1-methylpiperidine-4-yl)piperazine-1-yl)-1-oxopropan-2-yl)-4-(7-oxo-7,8-dihydro-2H-thiopyrano[2,3-b]pyridine-6-yl)piperidine-1-formamide], which IC50 (CGRP receptor complex) is on record?
**A.** Its IC50 is 0.15 nM.

**Q.** For `Cc1cc(C[C@@H](NC(=O)N2CCC(c3cc4ccccc4[nH]c3=O)CC2)C(=O)N2CCN(C3CCN(C)CC3)CC2)cc2cn[nH]c12` [Zavegepant, zavegepant, reference compound], which “Tmax(DDM 5%)/ Tmax(DDM 0%)” value [5] is on record?
**A.** Its value is 50%.

**Q.** And the “% remaining (60 min)” value [1]?
**A.** Its value is 95.5%.

**Q.** And the “% remaining (60 min)” value ([3]; Monkey liver microsomes)?
**A.** The value was 72.1%.

**Q.** And the Tmax ([6]; 0.2% DDM)?
**A.** Its Tmax is 12.5 min.

**Q.** What about the Tmax ([6]; not added with DDM (0%DDM)) of the same compound?
**A.** The Tmax was 15 min.

**Q.** What about the “Tmax(DDM 0.2%)/ Tmax(DDM 0%)” value ([6]; intranasal, 0.2% dodecyl-β-D-maltoside (DDM) vs without DDM) of the same compound?
**A.** Its value is 83.6%.

**Q.** And the “% remaining (60 min)” value [4]?
**A.** Its value is 57.5%.

**Q.** And the AUC [7]?
**A.** Its AUC is “no obvious changes”.

**Q.** And the Cmax [7]?
**A.** The Cmax was “no obvious changes”.

**Q.** What about the Tmax [7] of the same compound?
**A.** The Tmax was “prolonged to some extent”.
